From article PMC11209715, “A novel selenium analog of HDACi-based twin drug induces apoptosis and cell cycle arrest via CDC25A to improve prostate cancer therapy” (Theranostics, 2024)

Key:
[1] = Drug toxicity test: blood biochemistry in nude mice; format: in vivo; parameters: TBIL / BUN: unit not given here; details: serum of nude mice; for ALT: dose (DCA 100, SAHA 20, SeSAHA 20, Docetaxel 10, SeSA-DCA 20 mg/kg); for ALT / ALP / AST: in U/L (unit assumed); for ALB / GLOB / TP: in g/L (unit assumed)
Procedure: Blood samples from each mouse were kept at room temperature for 3 h and centrifuged at 8000 rpm for 15 min to produce serum. The samples were then placed on the blood routine detector for biochemical analysis.

PC3 cells [2] = assay: CCK-8 cell viability assay, PC3; format: cell-based; details: Homo sapiens, PC-3, Figure 2B and text
Procedure: (§1) Human cancer cell lines (PC3, DU145, A549, H1299, MDA-MB-231, HepG2, PANC-1, MIA PaCa-2, HT-29, HCT116, and HeLa) were obtained from the Cell Resource Center, Peking Union Medical College (National Infrastructure of Cell Line Resource, NSTI). These cell lines were cultured according to NSTI culture guidelines and cultured in RPMI 1640 medium (Biological Industries, Israel) supplemented with 10% heat-inactivated fetal bovine serum (FBS; BI; Israel), penicillin/streptomycin (P/S; 100 IU/ml; Gibco, 10378016) in an incubator at 37 °C and 5% CO2.
(§2) Cell cytotoxicity assays were performed in 96-well plates (NEST) to determine the growth kinetics of SeSA-DCA-treated cells using CCK-8 reagent (Shandong Sparkjade Biotechnology Co., Ltd., CT0001-B). Cells (5000 cells/well) were treated with DMSO or different drugs. Each treatment was performed in five replicates. To assess cell growth, 10 μL of CCK-8 reagent was introduced to every well and allowed to incubate for 4 h. Following that, the absorbance value for each well was measured at 450 nm. Every experiment was duplicated no less than thrice.

PC3 cells [3] = assay: RNA-sequencing and GSEA of treated PC3 cells; format: cell-based, Human; details: 48 h
Procedure: PC3 cells were seeded at a density of 5 × 10^6 cells/flask in two 75 cm^2 flasks. Treatment with drugs for 48 h was performed in one flask, whereas the other was used as a control. Total RNA was isolated using TRIZOL, and the total RNA was extracted from the sample with RNA extraction kit (Accurate Biotechnology (Hunan) Co., Ltd. ChangSha, China). DNA was digested with DNase (GenScript, E00053). Magnetic beads with Oligo (dT) were used to enrich eukaryotic mRNA, and cDNA library construction and sequencing were performed on the Illumina HiSeq Xten platform. After quality inspection, raw data (raw reads) were processed using Trimmomatic. Reads containing ploy-N and low-quality reads were removed to obtain clean reads. The clean reads were then mapped to the reference genome using HISAT2. The FPKM value of each gene was calculated using cufflinks, and the read counts of each gene were obtained by htseq-count. DEGs were identified using DESeq. […] Hierarchical cluster analysis of DEGs was performed to explore the gene expression patterns. KEGG pathway enrichment analysis and PPI and IPA analyses of the DEGs were performed.
GSEA was conducted using GSEA software.

HDAC = assay: Inhibitory activity of SeSAHA compared with SAHA (data not shown); details: preliminary results
HT-29 = assay: CCK-8 cell viability assay, HT-29; format: cell-based; details: Homo sapiens, Figure 2A
Procedure: as §1, §2

[4] = versus DMSO, adjusted p-value < 0.05, |log2foldchange| > 1

| SMILES | A/G [1] | BUN [1] | TBIL [1] | ALT [1] | ALP [1] | AST [1] | ALB [1] | GLOB [1] | TP [1] | IC50 (PC3 cells [2]) [µM] | changes in gene expression compared with DMSO (PC3 cells [3]) | inhibitory effect relative to SAHA (HDAC) | IC50 (HT-29) [µM] | downregulated transcripts/genes (PC3 cells [3]; [4]) | upregulated transcripts/genes (PC3 cells [3]; [4]) |
| --- | --- | --- | --- | --- | --- | --- | --- | --- | --- | --- | --- | --- | --- | --- | --- |
| CC(=O)O[C@@]12CO[C@@H]1C[C@H](O)[C@@]1(C)C(=O)[C@H](O)C3=C(C)[C@@H](OC(=O)[C@H](O)[C@@H](NC(=O)OC(C)(C)C)c4ccccc4)C[C@@](O)([C@@H](OC(=O)c4ccccc4)[C@H]21)C3(C)C [Docetaxel, docetaxel] | 0.38 ± 0.04 | 9.8 ± 0.8 | 0.7 ± 0.07 | 46.4 ± 5.7 | 34.2 ± 8.2 | 251.8 ± 48.3 | 14.6 ± 0.6 | 38.3 ± 3.1 | 52.8 ± 4.1 | – | – | – | – | – | – |
| O=C(O)C(Cl)Cl [DCA, Dichloroacetate] | 0.36 ± 0.02 | 10.5 ± 0.88 | 0.49 ± 0.06 | 37.5 ± 4.5 | 36.2 ± 3.6 | 223.4 ± 35 | 13.45 ± 0.18 | 37.1 ± 0.22 | 51.5 ± 0.45 | > 18000 | minimal changes | – | – | – | – |
| O=C(CCCCCC[Se][Se]CCCCCCC(=O)Nc1cccc(CO)c1)Nc1cccc(CO)c1 [SeSAHA] | 0.4 ± 0.07 | 6.7 ± 0.7 | 0.6 ± 0.07 | 49.3 ± 6.7 | 36.5 ± 4.3 | 235.5 ± 40.3 | 15.4 ± 2.1 | 38.4 ± 1.1 | 53.7 ± 0.3 | > 1.8 | – | more than 10 fold | – | – | – |
| O=C(CCCCCC[Se][Se]CCCCCCC(=O)Nc1cccc(COC(=O)C(Cl)Cl)c1)Nc1cccc(COC(=O)C(Cl)Cl)c1 | – | – | – | – | – | – | – | – | – | – | – | – | 8.71 | – | – |
| O=C(CCCCCCC(=O)Nc1ccccc1)NO [SAHA, suberoylanilide hydroxamic acid] | – | 7.9 ± 1.5 | 0.8 ± 0.17 | 53.5 ± 5.5 | 34.3 ± 3.3 | 285.3 ± 40.6 | 15.8 ± 0.6 | 35.9 ± 3.6 | 51.7 ± 2.5 | – | – | – | – | 1573 | 2,024 |
